{
  "source": "patent US4175081A",
  "about": "“5-Substituted thiadiazole ureas” (priority 1977, dated 1979)",
  "key": {"[1]": {"test_system": "variety of crops and weed species", "assay": "Pre- and post-emergence herbicide tests, overall assessment of Tables III-VI", "assay_type": "in vivo", "conditions": "data of Tables III-VI", "in_short": "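Crops and weeds grown in potting soil were sprayed at 8 lbs. compound per acre in 38 gallons per acre, pre-emergence pots seeded one day before treatment. Injury or control was visually rated two weeks after treatment.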"}, "Turnip (TP)": {"test_system": "Turnip (TP)", "assay": "Post-emergence herbicide test", "assay_type": "in vivo, Brassica sp.", "conditions": "Brassica rapa, post-emergence, 336 h, two weeks after treatment", "in_short": "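A greenhouse post-emergence herbicide test on turnip. Seeds were sown on the surface of potting soil in 3' plastic pots, lightly covered with screened soil and watered from below. Planting was timed so seedlings had 1 or 2 true leaves above the cotyledons at spraying, done in a hood with a fixed nozzle. Control or injury was scored by eye after two weeks.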"}, "Amaranth pigweed (PW) [2]": {"test_system": "Amaranth pigweed (PW)", "assay": "Post-emergence herbicide test", "assay_type": "in vivo, Amaranthus retroflexus", "conditions": "336 h, two weeks after treatment", "in_short": "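Pot-grown pigweed was sprayed post-emergence at the 1–2 true-leaf stage with compound at rates equivalent to 8 lbs per acre (formulations also prepared for 4 lbs/acre) in 38 gallons per acre, using a hood with fixed nozzle. Plants were sub-irrigated in the greenhouse, and injury or control was rated visually two weeks after treatment.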"}, "Sinapis": {"test_system": "Sinapis", "assay": "Field test, post-emergence application", "assay_type": "in vivo", "set-up": "unit not given here", "conditions": "2 lbs/acre, reading 0 = no effect, 10 = completely killed, 8 and 14 days", "method": "Tests have also been made for the compound of Example 1 with Sinapis, oats and wheat. This test was conducted according to the following procedure.\nForty rows, 70 feet long, were planted to weeds and crops. Two rows were planted on each bed. Beds were 40 inches apart from center to center. The two rows were about 10 inches apart on each bed. Beds were rolled prior to planting to provide a uniform smooth surface. Soil temperature at a depth of 11/2 inches was 66° F. at time of planting. Post-emergence applications were made by spraying bands across rows 10 feet wide using a self-propelled plot sprayer with a 10 foot boom equipped with Teejet 8001 flat spray nozzle tips and operated at 40 psi. A total of 84 fluid ounces of spray material was applied to three replicates. Each replicate plot was 10 feet wide by 66.67 feet long.\nEight days after the application, readings were made on the effect of the chemicals on each crop and weed in the post-emergence treatment. A reading of 0 was recorded if no effect was observed; 10 recorded if the plants were completely killed, and readings of 1 to 9 for intermediate kills. A second reading of the post-emergence treatments was made 14 days after the application."}, "Crabgrass (CG)": {"test_system": "Crabgrass (CG)", "assay": "Post-emergence herbicide test", "assay_type": "in vivo, Digitaria sanquinalis", "conditions": "Digitaria sanguinalis, post-emergence, 336 h, two weeks after treatment", "in_short": "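Crabgrass (Digitaria sanquinalis) was surface seeded individually in 3' plastic pots of potting soil, covered with screened soil, and watered by sub-irrigation in greenhouse trays. Planting was staggered so seedlings reached the target stage together. Post-emergence sprays were applied in a hood with a removable belt and fixed nozzle, and control was visually rated two weeks after treatment.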"}, "Amaranth pigweed (PW) [3]": {"test_system": "Amaranth pigweed (PW)", "assay": "Pre-emergence herbicide test", "assay_type": "in vivo, Amaranthus retroflexus", "conditions": "336 h, two weeks after treatment", "in_short": "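Pigweed was surface-seeded in potted soil one day before spraying at 8 lbs compound per acre, or 4 lbs/acre, in 38 gallons per acre. Pots were kept in the greenhouse with sub-irrigation only; injury or control was rated visually two weeks after treatment.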"}, "Johnson grass (JG)": {"test_system": "Johnson grass (JG)", "assay": "Pre-emergence herbicide test", "assay_type": "in vivo, Sorgum helepense", "conditions": "Sorghum halepense, 336 h, two weeks after treatment", "in_short": "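Pots seeded one day before spraying; compound applied pre-emergence at 8 lbs/acre (or 4 lbs/acre) in 38 gallons/acre spray volume. Sub-irrigated in greenhouse; injury/control rated visually two weeks after treatment.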"}, "[4]": {"assay": "Acute oral toxicity in rats", "conditions": "rat, in vivo"}},
  "data": [
    {"molecule": "CNC(=O)Nc1nnc(C(F)(F)F)s1", "note": "[Example 1, 1-Methyl-3-[5-Trifluoromethyl-2-(1,3,4-Thiadiazolyl)] Urea]", "values": [
      {"measurement": "herbicidal effectiveness / selectivity, in words", "setting": "[1]", "result": "extremely effective when applied to a variety of crops and weed species"},
      {"measurement": "pest or weed control at 2241.7 g/ha", "setting": "Turnip (TP); 2 lb/acre", "result": 80, "unit": "%"},
      {"measurement": "pest or weed control at 4483.4 g/ha", "setting": "Turnip (TP); 4 lb/acre", "result": 100, "unit": "%"},
      {"measurement": "pest or weed control at 8966.8 g/ha", "setting": "Turnip (TP); 8 lb/acre", "result": 100, "unit": "%"},
      {"measurement": "pest or weed control at 2241.7 g/ha", "setting": "Amaranth pigweed (PW) [2]; 2 lb/acre", "result": 100, "unit": "%"},
      {"measurement": "pest or weed control at 4483.4 g/ha", "setting": "Amaranth pigweed (PW) [2]; 4 lb/acre", "result": 100, "unit": "%"},
      {"measurement": "pest or weed control at 8966.8 g/ha", "setting": "Amaranth pigweed (PW) [2]; 8 lb/acre", "result": 100, "unit": "%"},
      {"measurement": "Post-emergence activity, % control, Sinapis", "setting": "Sinapis", "result": 10},
      {"measurement": "pest or weed control", "setting": "Crabgrass (CG); 2 lb/acre", "result": 60, "unit": "%"},
      {"measurement": "pest or weed control at 4483.4 g/ha", "setting": "Crabgrass (CG); 4 lb/acre", "result": 90, "unit": "%"},
      {"measurement": "pest or weed control at 8966.8 g/ha", "setting": "Crabgrass (CG); 8 lb/acre", "result": 100, "unit": "%"},
      {"measurement": "pest or weed control at 4483.4 g/ha", "setting": "Amaranth pigweed (PW) [3]; 4 lb/acre", "result": 90, "unit": "%"},
      {"measurement": "pest or weed control at 8966.8 g/ha", "setting": "Amaranth pigweed (PW) [3]; 8 lb/acre", "result": 90, "unit": "%"},
      {"measurement": "pest or weed control at 4483.4 g/ha", "setting": "Johnson grass (JG); 4 lb/acre", "result": 80, "unit": "%"},
      {"measurement": "pest or weed control at 8966.8 g/ha", "setting": "Johnson grass (JG); 8 lb/acre", "result": 70, "unit": "%"},
      {"measurement": "LD50", "setting": "[4]", "result": 436, "unit": "mg/kg"}
    ]}
  ]
}
